In series [1] the test system is mouse leukemia L1210 cells. As to the kind of experiment: Growth inhibition test on cultured mouse leukemia L1210 cells. The class given is cell-based. The conditions noted are these: RPMI 1640 with 10% fetal calf serum. The method, then: Mouse leukemia L1210 cells were cultured in a RPMI 1640 medium containing 10% of fetal calf serum.
The subject of a further series is mouse leukemia L1210. Kind of series: Antitumor activity test on mouse leukemia L1210 in vivo. The conditions noted are these: for max (T/C): L1210, average survival time treated/control ×100, i.p. once a day for 5 days; for Opt. dose: L1210, dose giving max (T/C); for Opt. dose / LD50: i.p. once a day for 5 days; for LD50: L1210-bearing CDF1 mice. Here is the method:
Mice of compound-non-treated group (control group) were administered with physiological saline solution in the same manner. The average survival times of the compound-treated group and the control group (abbreviated as T and C, respectively) were measured and T/C percentage (T/C×100) was calculated from the following equation. [formula]
In Table 4, max (T/C) means the maximum value of T/C and optimum dose (opt. dose) means an administration amount giving the max namely, an optimum administration amount.

Molecules are shown by their SMILES.

What is called IC50 is the point on the concentration scale where inhibition reaches its midpoint. Low readings indicate higher potency, high ones lower potency. `CC1(C)CC[NH2+][Pt-2]2([NH2+]C1)[O]C(=O)CC(=O)[O]2` [Compound No. 21, cis-Malonato-2,2-dimethyl-1,4-butanediamine platinum]: in series [1], the IC50 was determined as 0.72 µg/mL. For the same compound, in the series with mouse leukemia L1210, the “max (T/C)” value amounted to 301% and the Opt. dose turned out to be 32 mg/kg.

`CC1CC[NH2+][Pt-2]2([NH2+]C1)[O]C(=O)CC(=O)[O]2` (racemic) [Compound No. 14, cis-Malonato-2-methyl-1,4-butanediamine platinum] came in with an IC50 in series [1] of 0.74 µg/mL. Also, in the series on mouse leukemia L1210, the “max (T/C)” value stood at 346% and the Opt. dose was determined as 32 mg/kg.

As usually defined, the LD50 is the dose at which mortality reaches 50%. A higher LD50 goes with lower toxicity. Take `O=C1[O][Pt-2]2([NH2+]CCCC[NH2+]2)[O]C(=O)C12CCC2` [Compound No. 2, cis-Cyclobutane-1,1-dicarboxylato-1,4-butanediamine Platinum]: the IC50 in series [1] worked out at 0.88 µg/mL. Further, in the series on mouse leukemia L1210, the “max (T/C)” value turned out to be 182%, the Opt. dose was 32 mg/kg and the median lethal dose (LD50) is given as 48.0 mg/kg.

Compound `CC1(C)CC[NH2+][Pt-2]2([NH2+]C1)[O]C(=O)C(C)(C)C(=O)[O]2` [Compound No. 24, cis-Dimethylmalonato-2,2-dimethyl-1,4-butanediamine platinum] displayed an IC50 in series [1] of 0.78 µg/mL. In the series on mouse leukemia L1210, the “max (T/C)” value turned out to be 253% and the Opt. dose was 64 mg/kg.

Turning to `CC1CCC[NH2+][Pt-2]2([NH2+]1)[O]C(=O)C(C)(C)C(=O)[O]2` (racemic) [Compound No. 8, cis-Dimethylmalonato-1-methyl-1,4-butanediamine platinum], the IC50 in series [1] turned out to be 0.90 µg/mL. In addition, in the series with mouse leukemia L1210, the “max (T/C)” value came out at 189% and the Opt. dose turned out to be 64 mg/kg.

Regarding `CC1CC[NH2+][Pt-2]2([NH2+]C1)[O]C(=O)C1(CCOCC1)C(=O)[O]2` (racemic) [Compound No. 16, cis-4-Oxacyclohexane-1,1-dicarboxylato-2-methyl-1,4-butanediamine platinum], the Solubility in water was more than 15000 µg/mL. In addition, the IC50 in series [1] amounted to 0.43 µg/mL. Further, in the series on mouse leukemia L1210, the “max (T/C)” value was 167%, the Opt. dose stood at 8 mg/kg and the LD50 was determined as 12.0 mg/kg.

For `CCC(CN)CCN.O=C([O-])C1(C(=O)[O-])CCC1.[Pt+2]` [Compound No. 32, cis-Cyclobutane-1,1-dicarboxylato-2-ethyl-1,4-butanediamine platinum], the IC50 in series [1] amounted to 0.67 µg/mL. In the series on mouse leukemia L1210, the “max (T/C)” value amounted to 275% and the Opt. dose was 32 mg/kg.

For `CCC1CC[NH2+][Pt-2]([Cl])([Cl])[NH2+]C1` (racemic) [Compound No. 29, cis-Dichloro-2-ethyl-1,4-butanediamine platinum], the “Solubility in physiological saline solution” value is more than 2 mg/ml. For the same compound, the IC50 in series [1] was 0.05 µg/mL. In the series on mouse leukemia L1210, the “max (T/C)” value is 261%, the Opt. dose worked out at 2 mg/kg and the LD50 is reported as 3.0 mg/kg.

Consider `CC1CCC[NH2+][Pt-2]([Cl])([Cl])[NH2+]1` (racemic) [Compound No. 4], for which the “Solubility in physiological saline solution” value was more than 2 mg/ml. The compound further came in with an IC50 in series [1] of 0.20 µg/mL. Also, in the series on mouse leukemia L1210, the “max (T/C)” value is 225%, the Opt. dose stood at 2 mg/kg and the LD50 worked out at 2.4 mg/kg.

The compound `CCC(CN)CCN.O=C([O-])CC(=O)[O-].[Pt+2]` (stereo not drawn) [Compound No. 31, cis-Malonato-2-ethyl-1,4-butanediamine platinum] returned a half-maximal inhibitory concentration (IC50) in series [1] of 0.66 µg/mL.

For `CCC1C(=O)[O][Pt-2]2([NH2+]CCCC(C)[NH2+]2)[O]C1=O` (racemic) [Compound No. 9, cis-Ethylmalonato-1-methyl-1,4-butanediamine platinum], the Solubility in water was more than 10000 µg/mL. In addition, the IC50 in series [1] came to 2.40 µg/mL. In addition, in the series with mouse leukemia L1210, the “max (T/C)” value was determined as 222%, the Opt. dose turned out to be 64 mg/kg and the LD50 stood at 96.0 mg/kg.

Regarding `CC(C)(C(=O)[O-])C(=O)[O-].CC(C)(N)CCCN.[Pt+2]` [Compound No. 28, cis-Dimethylmalonato-1,1-dimethyl-1,4-butanediamine platinum], in series [1], the IC50 turned out to be 4.50 µg/mL.

`CC(N)CCCN.O=C([O-])CC(=O)[O-].[Pt+2]` (stereo not drawn) [Compound No. 6, cis-Malonato-1-methyl-1,4-butanediamine platinum] displayed an IC50 in series [1] of 0.76 µg/mL. Further, in the series on mouse leukemia L1210, the “max (T/C)” value was found to be 359% and the Opt. dose was 32 mg/kg.

In series [1], `CCC1CC[NH2+][Pt-2]2([NH2+]C1)[O]C(=O)C(C)(C)C(=O)[O]2` (racemic) [Compound No. 33, cis-Dimethylmalonato-2-ethyl-1,4-butanediamine platinum] yielded an IC50 of 0.23 µg/mL.

Compound `CCC(N)CCCN.O=C([O-])C1(C(=O)[O-])CCOCC1.[Pt+2]` [Compound No. 12, cis-4-Oxacyclohexane-1,1-dicarboxylato-1-ethyl-1,4-butanediamine platinum] gave a half-inhibitory concentration (IC50) in series [1] of 1.05 µg/mL. In addition, in the series on mouse leukemia L1210, the “max (T/C)” value worked out at 181% and the Opt. dose was 64 mg/kg.

As to `CC1(C)CCC[NH2+][Pt-2]2([NH2+]1)[O]C(=O)C1(CCC1)C(=O)[O]2` [Compound No. 27, cis-Cyclobutane-1,1-dicarboxylato-1,1-dimethyl-1,4-butanediamine platinum], the Solubility in water is more than 10000 µg/mL.

For the compound `CC1(C)CC[NH2+][Pt-2]2([NH2+]C1)[O]C(=O)C(=O)[O]2` [Compound No. 20, cis-Oxalato-2,2-dimethyl-1,4-butanediamine platinum], in series [1], the IC50 was found to be 0.37 µg/mL. For the same compound, in the series on mouse leukemia L1210, the “max (T/C)” value is listed as 272% and the Opt. dose came to 8 mg/kg.

For the compound `CCC1CC[NH2+][Pt-2]2([NH2+]C1)[O]C(=O)C(=O)[O]2` (racemic) [Compound No. 30, cis-Oxalato-2-ethyl-1,4-butanediamine platinum], the IC50 in series [1] was determined as 0.06 µg/mL. Moreover, in the series on mouse leukemia L1210, the “max (T/C)” value came to 253% and the Opt. dose came out at 8 mg/kg.

For `CC1CC[NH2+][Pt-2]2([NH2+]C1)[O]C(=O)C(C)(C)C(=O)[O]2` (racemic) [Compound No. 17, cis-Dimethylmalonato-2-methyl-1,4-butanediamine platinum], in series [1], the IC50 came to 0.50 µg/mL. Besides, in the series with mouse leukemia L1210, the “max (T/C)” value amounted to 238% and the Opt. dose came out at 32 mg/kg.

`CC(N)CCCN.O=C([O-])C(=O)[O-].[Pt+2]` (stereo not drawn) [Compound No. 5, cis-Oxalato-1-methyl-1,4-butanediamine platinum] came in with an IC50 in series [1] of 0.29 µg/mL. Besides, in the series on mouse leukemia L1210, the “max (T/C)” value came to 273% and the Opt. dose turned out to be 4 mg/kg.

For the compound `CC1(C)CCC[NH2+][Pt-2]2([NH2+]1)[O]C(=O)C(=O)[O]2` [Compound No. 26, cis-Oxalato-1,1-dimethyl-1,4-butanediamine platinum], in series [1], the IC50 worked out at 0.30 µg/mL.

For the compound `CC(N)CCCN.O=C([O-])C1(C(=O)[O-])CCC1.[Pt+2]` [Compound No. 7, cis-Cyclobutane-1,1-dicarboxylato-1-methyl-1,4-butanediamine platinum], in series [1], the IC50 came out at 2.80 µg/mL. Further, in the series with mouse leukemia L1210, the “max (T/C)” value is 176% and the Opt. dose turned out to be 64 mg/kg.

These data come from US4921984A, “Novel platinum complexes” (Nippon Kayaku Kabushiki Kaisha, priority 1985, dated 1990).
